The values below come from patent publication US5994359A, “Imino oxyphenyl acetic acid derivatives, methods and intermediates for their preparation and use thereof” (BASF Aktiengesellschaft, priority 1995, dated 1999).

SMILES strings stand for the structures.

The subject of one assay is Tetranychus telarius. Kind of assay: Tetranychus telarius (greenhouse red spider mite), contact action. In kind it is in vivo. As to conditions: 120 h, infested dwarf beans in pots, assessed after 5 days in the greenhouse, read-out: limit concentration (lowest concentration still causing 80-100% inhibition or mortality). An excerpt: (§1) The active ingredients were formulated
(§2) a) as a 0.1% strength solution in acetone or
(§3) b) as a 10% emulsion in a mixture of 70% by weight of cyclohexanol, 20% by weight of Nekanil® LN (Lutensol® AP6, wetting agent having emulsifying and dispersant action based on ethoxylated alkylphenols) and 10% by weight of Emulphor® EL emulsifier based on ethoxylated fatty alcohols)
(§4) and diluted to give the desired concentraton, using acetone in the case of a) and water in the case of b).
(§5) After the experiments had been concluded, in each case the lowest concentration at which the compounds still caused an 80-100% inhibition or mortality in comparison with untreated controls was determined (limit or minimum concentration).
After 5 days in the greenhouse, the result of the control measures was determined by means of a stereomicroscope.
Turning to `CON=C(C)C(C)=NOc1ccccc1C(=NOC)C(=O)OC` [I(2).2, methyl methoxyimino-[2-(2-methoxyimino-1-methylpropylideneaminooxy)phenyl]acetate], the minimal effective concentration was no more than 200 µg/mL.
Still for that read-out and setting: as for `CCC(=NOC)C(C)=NOc1ccccc1C(=COC)C(=O)OC` [I(2).20], the figure is no more than 200 µg/mL; as for `CCC(=NOC)C(C)=NOc1ccccc1C(=NOC)C(=O)NC` [I(2).19], no more than 200 µg/mL; as for `CCC(=NOC)C(C)=NOc1ccccc1C(=NOC)C(=O)OC` [I(2).21], no more than 200 µg/mL.
The same measure, in the same setting: next, `CCON=C(C)C(C)=NOc1ccccc1C(=COC)C(=O)OC` [I(2).15]: no more than 200 µg/mL.
Still for that read-out and setting: as for `CNC(=O)C(=NOC)c1ccccc1ON=C(C)C(C)=NOC(C)C` [I(2).8], the figure is no more than 200 µg/mL.
With `COC=C(C(=O)OC)c1ccccc1ON=C(C)C(C)=NOC(C)C` [I(2).6], the minimal effective concentration was no more than 200 µg/mL.
As to `CCC(=NOc1ccccc1C(=COC)C(=O)OC)C(C)=NOC` [I(2).14], the minimal effective concentration was no more than 200 µg/mL.
On the same count and under the same terms, as for `CCON=C(C)C(C)=NOc1ccccc1C(=NOC)C(=O)OC` [I(2).9], the figure is no more than 200 µg/mL.
Still for that read-out and setting: next, `COC=C(C(=O)OC)c1ccccc1ON=C(C)C(C)=NOC` [I(2).7, methyl 3-methoxy-[2-(2-methoxyimino-1-methyl-propylideneaminooxy)phenyl]acrylate]: no more than 200 µg/mL; `C#CCON=C(C)C(C)=NOc1ccccc1C(=NOC)C(=O)OC` [I(2).16]: no more than 200 µg/mL.
In the case of `CON=C(C(=O)OC)c1ccccc1ON=C(C)C(C)=NOC(C)C` [I(2).13], the minimal effective concentration is no more than 200 µg/mL.
Same read-out and setting: next, `C#CCON=C(C)C(C)=NOc1ccccc1C(=COC)C(=O)OC` [I(2).17]: no more than 200 µg/mL.

Another assay concerns Aphis fabae. Nature of the assay: Aphis fabae (blackbean aphid), contact action. In kind it is in vivo. As to conditions: infested dwarf beans (Vicia faba), mortality after 24 hours, read-out: limit concentration (lowest concentration still causing 80-100% inhibition or mortality).
Text: as §1, §2, §3, §4, §5
Severely infested dwarf beans (Vicia faba) were treated with the aqueous preparation of active ingredient. After 24 hours, the mortality rate was determined.
Regarding `CCON=C(C)C(C)=NOc1ccccc1C(=NOC)C(=O)OC` [I(2).9], the minimal effective concentration is 200 µg/mL.

The test system of another assay is Heliothis virescens. Kind of assay: Heliothis virescens (tobacco budworm), contact/stomach action. As to conditions: tobacco plants, 3rd instar larvae, mortality and antifeeding effect after 48 hours, read-out: limit concentration (lowest concentration still causing 80-100% inhibition or mortality). It is filed as in vivo.
Text: as §1, §2, §3, §4, §5
Tobacco plants approximately 10 cm high were treated with the aqueous preparation of active ingredient. After the plants had dried, they were populated with in each case 10 3rd instar larvae. Mortality and antifeeding effect were assessed after 48 hours.
`C#CCON=C(C)C(C)=NOc1ccccc1C(=COC)C(=O)OC` [I(2).17]: the minimal effective concentration was 40 µg/mL.

The test system of the next assay is mitochondria of the yeast Saccharomyces cerevisiae. Kind of assay: Inhibition of mitochondrial respiration (photometric cytochrome c reduction rate in isolated mitochondria). The note with it: Saccharom. cerevisiae mitochondria; relative to reference substance enol ether stilbene. It is filed as biochemical. The source says: To determine the effect of the compounds according to the invention on mitochondrial respiration, it is first necessary to isolate the mitochondria from the test organisms. In the case of the yeast Saccharomyces cerevisiae, a 30 to 40% cell suspension of the fungus is disrupted, to this end, in an aqueous solution of 0.6 M Mannitol+0.01 M tris[hydroxymethyl]aminomethane+0.002 M disodium ethylenediaminetetraacetate (pH 6.8) using a glass bead mill, and the extract is fractionated by means of differential centrifugation at 1000×g and 12000×g. The mitochondria are in the precipitate of the 12000×g centrifugation.
The effect of the compounds on the respiration chain is determined by adding a solution of the test compound in dimethyl sulfoxide to a suspension of mitochondria in an aqueous solution of 0.01 M tris[hydroxymethyl]aminomethane+0.65 M sorbitol+0.01 M KH2 PO4 +0.01 M KCl+0.0004 M disodium ethylenediamine-tetraacetate+0.3% bovine serum albumin+0.0007 M KCN+6×10^-6 ubiquinone-50+0.01 M sodium succinate+0.15% cytochrome c (pH 7.5), and the reduction rate of the cytochrome c is determined photometrically on the basis of the increased absorption at 546 nm. A batch with a corresponding amount of pure DMSO is used as control. The inhibitory value for the active ingredient at the concentration shown in each case is then calculated as follows. [formula] where ΔE is the difference in absorption, At the difference in time, [formula]
In the table which follows, the action of a series of compounds according to the invention as respiration inhibitors on the mitochondria of the yeast Saccharomyces cerevisiae, the phyto-pathogenic fungus Drechslera sorokiniana and the common housefly Musca domestics.
In each case, the inhibition of mytochondrial respiration is given as I50 value (this being the concentration of test substance where a 50% inhibition is observed) and as F value, this being a relative value defined as follows: [formula]
The reference substance is the so-called enol ether stilbene, of the following formula: [drawing 80]
With `CON=C(C)C(C)=NOc1ccccc1C(=NOC)C(=O)OC` [I(2).2, methyl methoxyimino-[2-(2-methoxyimino-1-methylpropylideneaminooxy)phenyl]acetate], the “F value (relative value)” value stood at 0.43.
In the case of `CON=C(C(=O)OC)c1ccccc1ON=C(C)c1cccc(C)c1` [I(1).1, methyl methoxyimino-[2-(1-meta-tolylethylideneaminooxy)phenyl]acetate], the “F value (relative value)” value is recorded as 0.96.
For `CNC(=O)C(=NOC)c1ccccc1ON=C(C)c1cccc(C)c1` [I(1).2, 2-methoxyimino-N-methyl-2-[2-(1-meta-tolylethylideneamino-oxy)phenyl]acetamide], the “F value (relative value)” value stood at 11.
On the same count and under the same terms, as for `CNC(=O)C(=NOC)c1ccccc1ON=C(C)C(C)=NOC` [I(2).3, N-methyl-methoxyimino-[2-(2-methoxyimino-1-methylpropylideneaminooxy)phenyl]acetamide], the figure is 9.6.
